From ChEMBL document CHEMBL1142426, “Design and synthesis of macrocyclic peptidyl hydroxamates as peptide deformylase inhibitors” (2008)
In brackets after ≈: the same amount, converted by molar mass. Activity calls are given as the source filed them. The rule behind the calls is not given here.

What was measured:
[1] = target: T1, Peptide deformylase (Escherichia coli) (UniProt Q9JN24); experiment: Inhibition of cobalt-substituted Escherichia coli PDF
T1 sequence (whole entry): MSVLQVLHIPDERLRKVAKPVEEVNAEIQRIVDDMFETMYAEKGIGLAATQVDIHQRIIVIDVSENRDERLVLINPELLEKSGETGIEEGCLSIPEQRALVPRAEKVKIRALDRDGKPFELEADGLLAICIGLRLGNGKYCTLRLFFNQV

[2] = target: T1, Peptide deformylase (Escherichia coli); experiment: Slow-binding inhibition of cobalt-substituted Escherichia coli PDF
[3] = test system: Escherichia coli; experiment: Antimicrobial activity against Escherichia coli; type: functional
[4] = test system: Bacillus subtilis; experiment: Antimicrobial activity against Bacillus subtilis; type: functional

`CC(C)(C)[C@@H]1NC(=O)[C@@H](CC(=O)NO)CCCCCCCCCNC1=O` gave a Ki [1] of 210 nM, a Ki [2] of 4.4 nM and an MIC [3] of over 24 µg/mL. For the same compound, the MIC [4] was 2 µg/mL (≈ 5.41 µM).
In the case of `O=C(C[C@H]1CCCCCCCCCNC(=O)[C@@H]2CCCN2C1=O)NO`, the Ki [1] is reported as 16000 nM, the Ki [2] is reported as 1400 nM and the Activity [3] is reported as “inactive”. It also gave an MIC [4] of over 24 µg/mL.
`CC(C)(C)[C@@H]1NC(=O)[C@@H](CN(O)C=O)CCCCCCCCCNC1=O` showed a Ki [1] of 109 nM and a Ki [2] of 0.33 nM.
`CC(C)(C)[C@@H]1NC(=O)[C@@H](CC(=O)NO)NC(=O)CCCCCCCCCNC1=O` showed a Ki [1] of over 20000 nM.
